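Five compound concentrations were applied to cells in 96-well plates for 48 hours; endpoints were derived by simple linear interpolation of the resulting dose-response curve. GI50 marks 50% less growth.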 Active and inactive are the calls of the source. Rule as the data show it: active = GI50 up to about 1.1 µM and inactive = higher.
Columns and labels:
Test in all cases: NCI-60 cell line screen, 48 h
[1] = tested on: 786-0
[2] = tested on: A498
[3] = tested on: A549
[4] = tested on: ACHN
[5] = tested on: BT-549
[6] = tested on: CAKI-1
[7] = tested on: CCRF-CEM
[8] = tested on: COLO 205
[9] = tested on: DU-145
[10] = tested on: EKVX
[11] = tested on: HCC 2998
[12] = tested on: HCT-116
[13] = tested on: HCT-15
[14] = tested on: HL-60
[15] = tested on: HOP-62
[16] = tested on: HOP-92
[17] = tested on: HT-29
[18] = tested on: Hs-578T
[19] = tested on: IGROV-1
[20] = tested on: K562
[21] = tested on: KM12
[22] = tested on: LOX IMVI
[23] = tested on: M14
[24] = tested on: MCF7
[25] = tested on: MDA-MB-231
[26] = tested on: MDA-MB-435
[27] = tested on: MDA-N
[28] = tested on: MOLT-4
[29] = tested on: Malme-3M
[30] = tested on: NCI-H226
[31] = tested on: NCI-H23
[32] = tested on: NCI-H460
[33] = tested on: NCI-H522
[34] = tested on: NCI/ADR-RES
[35] = tested on: OVCAR-3
[36] = tested on: OVCAR-4
[37] = tested on: OVCAR-5
[38] = tested on: OVCAR-8
[39] = tested on: PC-3
[40] = tested on: RPMI-8226
[41] = tested on: RXF 393
[42] = tested on: SF-268
[43] = tested on: SF-295
[44] = tested on: SF-539
[45] = tested on: SK-MEL-28
[46] = tested on: SK-MEL-2
[47] = tested on: SK-MEL-5
[48] = tested on: SK-OV-3
[49] = tested on: SN12C
[50] = tested on: SNB-19
[51] = tested on: SNB-75
[52] = tested on: SR
[53] = tested on: SW-620
[54] = tested on: T47D
[55] = tested on: TK-10
[56] = tested on: U-251
[57] = tested on: UACC-257
[58] = tested on: UACC-62
[59] = tested on: UO-31

SMILES: COC(=O)/C=C1\C(=O)N(C(C)=O)c2ccc(Br)cc21
- GI50 [1]: 5.46 µM (inactive)
- GI50 [2]: 21.9 µM (inactive)
- GI50 [3]: 17.5 µM (inactive)
- GI50 [4]: 11.6 µM (inactive)
- GI50 [5]: 9.08 µM (inactive)
- GI50 [6]: 21.3 µM (inactive)
- GI50 [7]: 1.47 µM (inactive)
- GI50 [8]: 13.7 µM (inactive)
- GI50 [9]: 12.8 µM (inactive)
- GI50 [10]: 15.2 µM (inactive)
- GI50 [11]: 17.7 µM (inactive)
- GI50 [12]: 6.92 µM (inactive)
- GI50 [13]: 6.75 µM
- GI50 [14]: 2.23 µM (inactive)
- GI50 [15]: 13.2 µM (inactive)
- GI50 [16]: 13.6 µM (inactive)
- GI50 [17]: 8.87 µM (inactive)
- GI50 [18]: 8.39 µM (inactive)
- GI50 [19]: 7.6 µM (inactive)
- GI50 [20]: 7.69 µM (inactive)
- GI50 [21]: 14.3 µM (inactive)
- GI50 [22]: 7.89 µM (inactive)
- GI50 [23]: 10.4 µM (inactive)
- GI50 [24]: 4.5 µM (inactive)
- GI50 [25]: 14.9 µM (inactive)
- GI50 [26]: 9.35 µM (inactive)
- GI50 [27]: 11 µM (inactive)
- GI50 [28]: 3.03 µM (inactive)
- GI50 [29]: 14.1 µM (inactive)
- GI50 [30]: 15.1 µM (inactive)
- GI50 [31]: 15.3 µM (inactive)
- GI50 [32]: 14.6 µM (inactive)
- GI50 [33]: 3.73 µM (inactive)
- GI50 [34]: 11.7 µM (inactive)
- GI50 [35]: 4.76 µM (inactive)
- GI50 [36]: 13.2 µM (inactive)
- GI50 [37]: 17.3 µM (inactive)
- GI50 [38]: 8.43 µM (inactive)
- GI50 [39]: 8.75 µM (inactive)
- GI50 [40]: 2.66 µM (inactive)
- GI50 [41]: 7.46 µM (inactive)
- GI50 [42]: 7.46 µM (inactive)
- GI50 [43]: 16.9 µM (inactive)
- GI50 [44]: 4.67 µM (inactive)
- GI50 [45]: 14.5 µM (inactive)
- GI50 [46]: 13.9 µM (inactive)
- GI50 [47]: 9.68 µM (inactive)
- GI50 [48]: 15.4 µM (inactive)
- GI50 [49]: 5.71 µM (inactive)
- GI50 [50]: 14.3 µM (inactive)
- GI50 [51]: 8.59 µM (inactive)
- GI50 [52]: 2.8 µM (inactive)
- GI50 [53]: 6.03 µM (inactive)
- GI50 [54]: 5.02 µM (inactive)
- GI50 [55]: 6.31 µM (inactive)
- GI50 [56]: 8.05 µM (inactive)
- GI50 [57]: 10.7 µM (inactive)
- GI50 [58]: 11.6 µM (inactive)
- GI50 [59]: 0.69 µM (active)

SMILES: O=C(/C=C/C=C/c1ccccc1)CCc1ccccc1
- GI50 [1]: > 100 µM (inactive)
- GI50 [2]: > 100 µM (inactive)
- GI50 [3]: > 100 µM (inactive)
- GI50 [5]: > 100 µM (inactive)
- GI50 [6]: > 100 µM (inactive)
- GI50 [7]: 35.2 µM (inactive)
- GI50 [8]: > 100 µM (inactive)
- GI50 [9]: > 100 µM (inactive)
- GI50 [10]: > 100 µM (inactive)
- GI50 [11]: > 100 µM (inactive)
- GI50 [12]: 40.7 µM (inactive)
- GI50 [13]: 94.4 µM
- GI50 [14]: 23.4 µM (inactive)
- GI50 [15]: > 100 µM (inactive)
- GI50 [16]: > 100 µM (inactive)
- GI50 [17]: 69.7 µM (inactive)
- GI50 [18]: 75.9 µM (inactive)
- GI50 [19]: > 100 µM (inactive)
- GI50 [21]: 22.1 µM (inactive)
- GI50 [22]: 79.4 µM (inactive)
- GI50 [23]: > 100 µM (inactive)
- GI50 [24]: > 100 µM (inactive)
- GI50 [25]: > 100 µM (inactive)
- GI50 [26]: 72.6 µM (inactive)
- GI50 [27]: > 100 µM (inactive)
- GI50 [28]: 21 µM (inactive)
- GI50 [29]: > 100 µM (inactive)
- GI50 [30]: > 100 µM (inactive)
- GI50 [31]: 63.7 µM (inactive)
- GI50 [33]: 50.2 µM (inactive)
- GI50 [34]: 68.5 µM (inactive)
- GI50 [35]: > 100 µM (inactive)
- GI50 [36]: 70.3 µM (inactive)
- GI50 [37]: > 100 µM (inactive)
- GI50 [38]: 73.8 µM (inactive)
- GI50 [39]: 83 µM (inactive)
- GI50 [40]: > 10 µM (inactive)
- GI50 [41]: > 100 µM (inactive)
- GI50 [42]: 85.1 µM (inactive)
- GI50 [43]: > 100 µM (inactive)
- GI50 [44]: > 100 µM (inactive)
- GI50 [45]: > 10 µM (inactive)
- GI50 [46]: > 100 µM (inactive)
- GI50 [47]: > 100 µM (inactive)
- GI50 [48]: > 100 µM (inactive)
- GI50 [49]: > 100 µM (inactive)
- GI50 [50]: 62.1 µM (inactive)
- GI50 [51]: > 100 µM (inactive)
- GI50 [52]: 20.3 µM (inactive)
- GI50 [53]: 37.6 µM (inactive)
- GI50 [54]: 53.3 µM (inactive)
- GI50 [55]: > 100 µM (inactive)
- GI50 [56]: 61 µM (inactive)
- GI50 [57]: > 100 µM (inactive)
- GI50 [58]: > 100 µM (inactive)
- GI50 [59]: 90.6 µM (inactive)

From ChEMBL document CHEMBL1201862, “PubChem BioAssay data set” (2004)
